“Also recorded” adds a separate entry of the source.
Experiments:
[1] = Sequential enzymatic hydrolysis of HPLC fractions (peaks A and B), GC analysis; format: biochemical, Muscat de Frontignan variety grapes
Procedure: The benefits of high performance liquid chromatography were exploited for isolating some terpene glycosides. For this purpose, fractions were collected as they emerged from the chromatographic system (more especially on elution of the peaks A and B) during the separation of the constituents of the glycosidic extract. (FIG. 10 below). Fifteen successive injections of 20 μl each enabled sufficient material to be isolated for the enzymatic hydrolyses and the analyses by GC to be performed in order to identify the compounds in question.
The chromatographic system consists of the following components: a Vista 5500 chromatograph equipped with a variable wavelength UV/visible spectrophotometer (Varian Assoc., Sunnyvale, Calif., USA); a six-way injection valve (Valco) equipped with a 20-μl loop; a stainless steel column (220×4 mm I.D.) filled with Spheri-5 (Brownlee Labs., Santa Clara, Calif., USA) octadecyl grafted silica of small particle size (5 μm); as well as a precolumn (37×4 mm I.D.) packed with the same stationary phase.
The chromatography is carried out using a water/-acetonitrile aqueous-organic mobile phase (reversed-phase polarity chromatography) and an elution graduated according to an increase in the acetonitrile content from 30 to 40% (by volume) in the course of 10 minutes. The elution solvent is pumped at a flow rate of 1 ml/min. The detection is performed at 200 nm and 0.5 absorbance unit full-scale.
Furthermore, each fraction was subjected to the sequential action of α-arabinosidase and then β-glucosidase. At the end of each stage and according to the procedures described, the incubated medium was analysed by GC in order to test for sugars and glucosides on the one hand, and for terpenols on the other hand. Thus, the peaks A and B were identified, respectively, as neryl and geranyl α-L-arabinofuranosyl-β-D-glucopyranosides. The identity of the geranyl glycoside was verified, in addition, by co-injection of the glycosidic extract with the synthetic compound.

[2] = Enzymatic hydrolysis on natural media by commercial enzyme preparations; format: biochemical, Muscat d'Alexandrie variety grapes; details: Hemicellulase + Naringinase, 25° C., 86 hours
Procedure: The enzymatic hydrolysis of a glycosidic extract incorporated, on the one hand into a natural medium (must or dry wine), and on the other hand into a reference medium (buffer), by the action of commercial preparations containing the requisite three glycosidases, was studied.
A juice and a wine of a vine variety not containing terpenols and terpene glycosides, but enriched beforehand with a known amount of glycosidic extract of muscat, are treated with commercial enzyme preparations. The media, as well as controls, are incubated at 25° C. for 86 hours (see the experimental protocol plan below). They are then passed through a column of Amberlite XAD-2 according to the protocol applied for the production of the glycosidic extract, and the terpenols are assayed by GC.
(4) The glycosidic extract used is obtained by passing a must of Muscat d'Alexandrie variety grapes through Amberlite XAD-2. The amount of glycosidic extract (1 ml) added in the tests corresponds to that found in 50 ml of must of Muscat d'Alexandrie variety grapes.

[3] = Enzymatic hydrolysis of a glycosidic extract (TLC and GC monitoring); format: biochemical, Muscat de Frontignan variety grapes; details: for % of monoglucosides: Table 5, both enzymes together; for Terpene monoglucosides liberated by α-arabinosidase / Terpene monoglucosides liberated by α-rhamnosidase: Table 5, percentage of the total amount liberated by the two enzymes
Procedure: Thin-layer adsorption chromatography was carried out on pieces of aluminum foil covered with a thin layer (0.2 mm) of silica gel (5553 Silica gel 60 without a fluorescence indicator, Merck). An ethyl acetate/isopropanol/water (65:30:10 v/v/v) mixture was used as a migration solvent.
The sugars and the glycosides are visualized by means of the following mixture, prepared immediately before use: 0.2% napthoresorcinol in ethanol/concentrated sulphuric acid (19:1 v/v). The application of this visualizing agent is followed by drying the plates in the oven (105° C.) for 15 minutes. Apart from their migration distance, the various compounds are also distinguished by their color. The glycosides are purple-red, the arabinosides are bluish, rhamnose greenish pink, arabinose blue and glucose pink.
40 μl of glycosidic extract and 60 μl of a solution of Glc-pNP (internal standard) at a concentration of 50 mg/l in ethyl acetate are introduced into a suitable flask. The mixture is taken to dryness at 40° C. with a stream of nitrogen. 40 μl of the silylating reagent (Tri-sil, Pierce, Rockford, Ill., USA) are then introduced; the flask is sealed and maintained at 40° C. for 20 minutes. After rapid cooling, the silylated sample is then ready for analysis by GC.
The apparatus used consists of a Series 30C gas chromatograph, an "on-column" injector (injected volume 0.5 μl) and a flame ionization detector (Girdel, France). A thin film (0.20 μm) of an OV-1 (girdel) apolar silicone phase is grafted onto the inner wall of the capillary column ([…].). The oven temperature is programmed from 125 to 305° C. at the rate of 5° C./minute, then maintained at 305° C. for 15 minutes. Finally, the detector temperature is set at 300° C. and hydrogen is used as the carrier gas at a pressure of 120 kPa.
The monoterpene alcohols studied here are sufficiently volatile to be chromatographed as they are. To the pentane extract containing them, the internal standard, 4-nonanol (for synthesis, Merck, Darmstadt, FRG) is added in the proportion of 1 μl of a solution at a concentration of 2.89 mg/ml in pentane per 50 μl of medium. The mixture is then dried over sodium sulphate, filtered through glass wool and then concentrated to a volume in the region of 100 μl. For this purpose, the pentane is first removed using a conventional still, and then a Dufton type column of a size suited to the volume remaining to be concentrated.
The constituents of the concentrated extract are separated using a capillary column (25 m×0.32 mm I.D.) containing a CP wax 52 CB (Chrompack, Middelburg, Netherlands) polar phase. The grafted polyethylene glycol film was selected thick (1.28 μm) in order to permit the injection of large sample volumes, up to 4 μl. The analysis is performed using a Fractovap Series 2900 (Carlo Erba, Milan, Italy) chromatograph, equipped with a flame ionization detector maintained at 250° C. and an "on-column" injector. Hydrogen was used as the carrier gas at a pressure of 60 kPa, and the oven temperature was programmed as follows: isothermal at 70° C. for 5 minutes, followed by a rise to 195° C. at the rate of 2° C./minute and a plateau at 195° C. for 15 minutes.
The glycosidic extract was obtained by extraction of a must of Muscat de Frontignan variety grapes collected at maturity in the vines of the Station Experimentale de Pech Rouge (INRA Gruissan, France), followed by removal of the free terpenols and sugars.
The glycoside fraction was taken to dryness under vacuum and then taken up in 18 ml of water. The glycosidic extract used in the chromatographic and enzymatic experiments was thereby obtained.
The experimental protocols for the enzymatic hydrolysis on the glycosidic extract are collated in Table 3. […]

[4] = Enzymatic hydrolyses on synthetic substrates (TLC, pNP, GC); format: biochemical; details: from the synthetic glycosides
From the text: The enzymatic hydrolysis is followed by thin-layer chromatography (TLC) and by gas chromatography (GC).
In all the tests relating to the enzymatic hydrolysis of the synthetic substrates, the same glycosidase activity (0.15 nkat) is used for each of the enzymes (α-arabinosidase, α-rhamnosidase, β-glucosidase).

## CC(C)=CCC/C(C)=C\CO[C@@H]1O[C@H](CO[C@@H]2O[C@@H](CO)[C@H](O)[C@H]2O)[C@@H](O)[C@H](O)[C@H]1O (single isomer, unassigned) [Peak A, neryl α-L-arabinofuranosyl-(1--> 6)-β-D-glucopyranoside]
[1]
  Compounds appearing after action of α-arabinosidase: arabinose; also recorded: Glc--Ner
  Compounds appearing after action of α-arabinosidase and then β-glucosidase: glucose; also recorded: nerol

## CC(C)=CCC/C(C)=C/CO[C@@H]1O[C@H](CO[C@@H]2O[C@@H](CO)[C@H](O)[C@H]2O)[C@@H](O)[C@H](O)[C@H]1O (single isomer, unassigned) [Peak B, geranyl α-L-arabinofuranosyl-(1--> 6)-β-D-glucopyranoside]
[1]
  Compounds appearing after action of α-arabinosidase: arabinose; also recorded: Glc--Ger
  Compounds appearing after action of α-arabinosidase and then β-glucosidase: glucose; also recorded: geraniol

## OCc1ccccc1 [Benzyl alcohol, benzyl alcohol]
[2]; MUST (pH 3.4, sugars 180 g/l)
  Compounds liberated relative to the reference medium: 46%
[2]; WINE (dry white, pH 3.1)
  Compounds liberated relative to the reference medium: 50%

## CC(C)=CCC/C(C)=C/CO[C@@H]1O[C@H](CO)[C@@H](O)[C@H](O)[C@H]1O [Glc--Ger, geranyl β-D-glucopyranoside]
[3]
  % of monoglucosides: 48%
  Terpene monoglucosides liberated by α-arabinosidase: 39%
  Terpene monoglucosides liberated by α-rhamnosidase: 9%

## C=CC(C)(CCC=C(C)C)O[C@@H]1O[C@H](CO)[C@@H](O)[C@H](O)[C@H]1O (stereo partly drawn) [Glc--Lin, linalyl β-D-glucopyranoside]
[3]
  % of monoglucosides: 19%
  Terpene monoglucosides liberated by α-arabinosidase: 10%
  Terpene monoglucosides liberated by α-rhamnosidase: 9%

## CC(C)=CCC/C(C)=C\CO[C@@H]1O[C@H](CO)[C@@H](O)[C@H](O)[C@H]1O [Glc--Ner, neryl β-D-glucopyranoside]
[3]
  % of monoglucosides: 33%
  Terpene monoglucosides liberated by α-arabinosidase: 28%
  Terpene monoglucosides liberated by α-rhamnosidase: 5%

## C=CC(C)(O)CCC=C(C)C (stereo not drawn) [Linalol, linalool]
[2]; MUST (pH 3.4, sugars 180 g/l)
  Compounds liberated relative to the reference medium: 9%
[2]; WINE (dry white, pH 3.1)
  Compounds liberated relative to the reference medium: 14%

## O=[N+]([O-])c1ccc(O)cc1 [pNP, p-nitrophenol]
[4]
  liberation of the aglycones: liberated only after the sequential action of both glycosidases

From patent US6106872A, “Process for obtaining aroma components and aromas from their precursors of a glycosidic nature, and aroma components and aromas thereby obtained” (Gist-brocades NV, priority 1988, dated 2000)
